What all share (assay): biochemical
Experiment [1] has as its target T1, panel of 374 wild-type kinases (Homo sapiens, UniProt P28482).
T1 construct: purchased Reaction Biology Corporation
Conditions: read-out: % Enzyme Activity (relative to DMSO controls), ERK2/MAPK1.

The target in experiment [2] is T2, panel of 374 wild-type kinases (Homo sapiens, UniProt Q9NQU5).
T2 construct: purchased Reaction Biology Corporation
Conditions: read-out: % Enzyme Activity (relative to DMSO controls), kinase PAK6.

The target of experiment [3] is T3, panel of 374 wild-type kinases (Homo sapiens, UniProt Q9P289).
T3 construct: purchased Reaction Biology Corporation
Conditions: read-out: % Enzyme Activity (relative to DMSO controls), MST4.

Experiment [4] addresses T4, panel of 374 wild-type kinases (Homo sapiens, UniProt Q9HBH9).
T4 construct: purchased Reaction Biology Corporation
Conditions: read-out: % Enzyme Activity (relative to DMSO controls), MNK2.

The target in experiment [5] is T5, panel of 374 wild-type kinases (Homo sapiens, UniProt P31751).
T5 construct: purchased Reaction Biology Corporation
Conditions: read-out: % Enzyme Activity (relative to DMSO controls), AKT2.

Experiment [6] addresses T6, panel of 374 wild-type kinases (Homo sapiens, UniProt O94804).
T6 construct: purchased Reaction Biology Corporation
Conditions: read-out: % Enzyme Activity (relative to DMSO controls), LOK/STK10.

Experiment [7] deals with T7, panel of 374 wild-type kinases (Homo sapiens, UniProt P23458).
T7 construct: purchased Reaction Biology Corporation
Conditions: read-out: % Enzyme Activity (relative to DMSO controls), JAK1.

The target of experiment [8] is T8, panel of 374 wild-type kinases (Homo sapiens, UniProt Q9H2G2).
T8 construct: purchased Reaction Biology Corporation
Conditions: read-out: % Enzyme Activity (relative to DMSO controls), kinase SLK/STK2.

Experiment [9] concerns the target T9, panel of 374 wild-type kinases (Homo sapiens, UniProt Q9BXA7).
T9 construct: purchased Reaction Biology Corporation
T9 sequence (Q9BXA7 1-367): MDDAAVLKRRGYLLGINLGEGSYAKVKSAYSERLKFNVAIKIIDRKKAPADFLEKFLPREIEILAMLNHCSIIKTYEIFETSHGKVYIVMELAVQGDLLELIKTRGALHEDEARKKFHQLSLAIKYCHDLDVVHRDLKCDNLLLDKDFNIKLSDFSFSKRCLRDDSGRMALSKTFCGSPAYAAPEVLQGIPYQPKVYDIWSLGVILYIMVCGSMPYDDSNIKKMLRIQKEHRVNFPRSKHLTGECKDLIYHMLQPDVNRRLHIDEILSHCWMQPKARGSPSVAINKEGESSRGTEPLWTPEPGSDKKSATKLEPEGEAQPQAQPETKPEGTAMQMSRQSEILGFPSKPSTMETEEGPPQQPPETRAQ
Conditions: read-out: % Enzyme Activity (relative to DMSO controls), kinase STK22D/TSSK1.

The target in experiment [10] is T10, panel of 374 wild-type kinases (Homo sapiens, UniProt Q96PY6).
T10 construct: purchased Reaction Biology Corporation
T10 sequence (Q96PY6 1-1258): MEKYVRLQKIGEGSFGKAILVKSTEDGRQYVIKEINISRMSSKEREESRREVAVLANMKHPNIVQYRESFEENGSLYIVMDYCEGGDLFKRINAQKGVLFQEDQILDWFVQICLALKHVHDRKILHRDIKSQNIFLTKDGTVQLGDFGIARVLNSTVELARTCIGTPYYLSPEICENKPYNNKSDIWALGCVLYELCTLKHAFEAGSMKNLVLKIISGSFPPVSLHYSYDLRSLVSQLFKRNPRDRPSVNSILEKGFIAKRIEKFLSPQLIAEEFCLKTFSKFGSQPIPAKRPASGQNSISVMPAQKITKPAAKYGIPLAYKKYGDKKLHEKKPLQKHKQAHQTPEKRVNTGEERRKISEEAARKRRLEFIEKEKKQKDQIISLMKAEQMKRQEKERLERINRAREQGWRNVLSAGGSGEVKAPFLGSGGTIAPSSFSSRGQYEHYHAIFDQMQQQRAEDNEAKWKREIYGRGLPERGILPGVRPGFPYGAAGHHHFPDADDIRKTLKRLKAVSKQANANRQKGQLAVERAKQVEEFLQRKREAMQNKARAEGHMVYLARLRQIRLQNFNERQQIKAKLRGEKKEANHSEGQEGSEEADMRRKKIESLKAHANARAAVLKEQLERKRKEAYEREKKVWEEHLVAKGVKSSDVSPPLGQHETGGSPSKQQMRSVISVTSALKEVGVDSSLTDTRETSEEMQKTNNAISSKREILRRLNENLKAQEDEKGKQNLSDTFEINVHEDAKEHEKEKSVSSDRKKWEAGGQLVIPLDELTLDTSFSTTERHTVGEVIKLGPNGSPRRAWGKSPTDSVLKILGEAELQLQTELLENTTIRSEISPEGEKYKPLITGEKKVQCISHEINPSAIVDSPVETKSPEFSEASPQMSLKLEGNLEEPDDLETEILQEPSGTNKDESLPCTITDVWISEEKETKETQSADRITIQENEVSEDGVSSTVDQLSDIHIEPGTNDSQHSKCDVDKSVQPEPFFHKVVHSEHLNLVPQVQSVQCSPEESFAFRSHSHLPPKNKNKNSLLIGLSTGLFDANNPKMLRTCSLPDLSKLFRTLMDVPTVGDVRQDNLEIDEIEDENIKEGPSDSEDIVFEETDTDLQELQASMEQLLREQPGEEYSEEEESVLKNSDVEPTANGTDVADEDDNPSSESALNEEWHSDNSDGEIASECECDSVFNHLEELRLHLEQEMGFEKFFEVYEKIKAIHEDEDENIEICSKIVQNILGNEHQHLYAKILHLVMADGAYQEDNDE
Conditions: read-out: % Enzyme Activity (relative to DMSO controls), NEK1.

For experiment [11], the target named is T11, panel of 374 wild-type kinases (Homo sapiens, UniProt Q13153).
T11 construct: purchased Reaction Biology Corporation
Conditions: read-out: % Enzyme Activity (relative to DMSO controls), kinase PAK1.

Experimental findings from patent US20240246942A1, “KINASE INHIBITORS FOR THE TREATMENT OF NEURODEGENERATIVE DISEASES” (priority 2020, published 2024) are described below.

T1 sequence (P28482 whole entry): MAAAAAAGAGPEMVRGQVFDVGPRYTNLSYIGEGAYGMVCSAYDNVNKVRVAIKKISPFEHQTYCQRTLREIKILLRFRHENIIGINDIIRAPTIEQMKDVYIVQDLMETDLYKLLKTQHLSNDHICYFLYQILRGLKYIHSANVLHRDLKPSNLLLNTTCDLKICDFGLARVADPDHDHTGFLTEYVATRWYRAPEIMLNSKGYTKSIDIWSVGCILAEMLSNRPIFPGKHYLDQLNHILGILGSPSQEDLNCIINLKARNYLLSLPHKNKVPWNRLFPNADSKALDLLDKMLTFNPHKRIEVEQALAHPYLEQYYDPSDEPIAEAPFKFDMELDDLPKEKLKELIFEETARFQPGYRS
T4 sequence (Q9HBH9 whole entry): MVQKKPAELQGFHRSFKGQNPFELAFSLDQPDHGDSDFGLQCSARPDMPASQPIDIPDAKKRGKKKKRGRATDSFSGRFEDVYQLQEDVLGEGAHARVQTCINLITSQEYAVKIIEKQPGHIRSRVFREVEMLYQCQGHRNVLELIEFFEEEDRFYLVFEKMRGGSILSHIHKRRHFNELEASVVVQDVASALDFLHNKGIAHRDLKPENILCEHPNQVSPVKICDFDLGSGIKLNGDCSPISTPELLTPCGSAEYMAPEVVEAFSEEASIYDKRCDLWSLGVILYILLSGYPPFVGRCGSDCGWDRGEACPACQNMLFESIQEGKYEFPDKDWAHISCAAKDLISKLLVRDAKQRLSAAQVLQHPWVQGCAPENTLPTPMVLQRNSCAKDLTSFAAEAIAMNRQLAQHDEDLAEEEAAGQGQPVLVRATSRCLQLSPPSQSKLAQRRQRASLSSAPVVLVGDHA
T11 sequence (Q13153 whole entry): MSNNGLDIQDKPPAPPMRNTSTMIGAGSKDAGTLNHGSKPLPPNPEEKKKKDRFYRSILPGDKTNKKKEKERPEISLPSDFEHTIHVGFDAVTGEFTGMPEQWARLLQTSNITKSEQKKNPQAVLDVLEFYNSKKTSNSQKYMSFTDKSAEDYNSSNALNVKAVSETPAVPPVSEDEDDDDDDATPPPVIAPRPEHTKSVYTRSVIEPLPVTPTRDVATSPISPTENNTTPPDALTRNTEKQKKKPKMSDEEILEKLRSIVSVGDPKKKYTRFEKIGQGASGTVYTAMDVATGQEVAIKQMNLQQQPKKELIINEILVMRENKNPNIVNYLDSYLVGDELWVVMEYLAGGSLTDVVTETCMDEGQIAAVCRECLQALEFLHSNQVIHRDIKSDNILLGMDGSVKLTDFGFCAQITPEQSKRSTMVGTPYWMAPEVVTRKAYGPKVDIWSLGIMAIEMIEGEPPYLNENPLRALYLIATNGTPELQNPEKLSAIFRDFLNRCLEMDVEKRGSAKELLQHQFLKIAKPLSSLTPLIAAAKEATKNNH
T3 sequence (Q9P289 whole entry): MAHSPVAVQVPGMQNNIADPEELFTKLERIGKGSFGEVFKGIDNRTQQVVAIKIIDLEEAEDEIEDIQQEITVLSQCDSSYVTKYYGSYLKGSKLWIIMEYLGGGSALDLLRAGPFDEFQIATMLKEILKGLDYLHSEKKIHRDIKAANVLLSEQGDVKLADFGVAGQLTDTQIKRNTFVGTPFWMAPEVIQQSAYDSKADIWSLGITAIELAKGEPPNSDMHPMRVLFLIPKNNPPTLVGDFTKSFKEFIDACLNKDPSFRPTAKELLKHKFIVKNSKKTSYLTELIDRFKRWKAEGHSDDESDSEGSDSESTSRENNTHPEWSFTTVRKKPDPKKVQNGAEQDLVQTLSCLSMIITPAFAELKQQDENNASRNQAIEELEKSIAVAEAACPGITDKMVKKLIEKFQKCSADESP
T7 sequence (P23458 whole entry): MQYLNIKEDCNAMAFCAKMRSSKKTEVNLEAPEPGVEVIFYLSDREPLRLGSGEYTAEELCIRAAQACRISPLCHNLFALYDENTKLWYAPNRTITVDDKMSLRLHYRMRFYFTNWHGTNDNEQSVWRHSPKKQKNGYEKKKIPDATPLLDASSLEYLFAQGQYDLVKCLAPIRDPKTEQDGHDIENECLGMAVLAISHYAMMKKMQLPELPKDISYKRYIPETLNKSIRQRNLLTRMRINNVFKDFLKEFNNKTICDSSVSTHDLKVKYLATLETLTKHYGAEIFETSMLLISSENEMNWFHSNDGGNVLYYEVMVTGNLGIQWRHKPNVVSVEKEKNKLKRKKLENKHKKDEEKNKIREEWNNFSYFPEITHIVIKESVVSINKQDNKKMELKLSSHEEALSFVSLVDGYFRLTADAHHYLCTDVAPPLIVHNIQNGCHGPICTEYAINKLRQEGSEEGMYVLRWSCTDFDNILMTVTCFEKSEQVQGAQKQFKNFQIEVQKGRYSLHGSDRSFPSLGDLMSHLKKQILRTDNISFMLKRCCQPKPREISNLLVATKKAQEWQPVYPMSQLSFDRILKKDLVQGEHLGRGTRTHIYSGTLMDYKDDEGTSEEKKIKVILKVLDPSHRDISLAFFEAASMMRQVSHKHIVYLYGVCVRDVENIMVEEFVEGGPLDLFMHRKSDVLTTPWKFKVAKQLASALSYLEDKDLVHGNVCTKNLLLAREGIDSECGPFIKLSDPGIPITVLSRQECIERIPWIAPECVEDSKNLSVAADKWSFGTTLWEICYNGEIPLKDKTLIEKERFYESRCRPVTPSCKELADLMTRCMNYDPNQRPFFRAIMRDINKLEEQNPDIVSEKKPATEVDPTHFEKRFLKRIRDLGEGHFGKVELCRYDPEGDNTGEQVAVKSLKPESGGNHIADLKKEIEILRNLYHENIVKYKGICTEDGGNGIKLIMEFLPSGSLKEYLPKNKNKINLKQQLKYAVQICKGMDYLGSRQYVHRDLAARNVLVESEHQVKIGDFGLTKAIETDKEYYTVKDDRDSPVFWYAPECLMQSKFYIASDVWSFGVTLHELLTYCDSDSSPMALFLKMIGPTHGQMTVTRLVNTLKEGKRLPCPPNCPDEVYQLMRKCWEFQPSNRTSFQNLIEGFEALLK
T6 sequence (O94804 whole entry): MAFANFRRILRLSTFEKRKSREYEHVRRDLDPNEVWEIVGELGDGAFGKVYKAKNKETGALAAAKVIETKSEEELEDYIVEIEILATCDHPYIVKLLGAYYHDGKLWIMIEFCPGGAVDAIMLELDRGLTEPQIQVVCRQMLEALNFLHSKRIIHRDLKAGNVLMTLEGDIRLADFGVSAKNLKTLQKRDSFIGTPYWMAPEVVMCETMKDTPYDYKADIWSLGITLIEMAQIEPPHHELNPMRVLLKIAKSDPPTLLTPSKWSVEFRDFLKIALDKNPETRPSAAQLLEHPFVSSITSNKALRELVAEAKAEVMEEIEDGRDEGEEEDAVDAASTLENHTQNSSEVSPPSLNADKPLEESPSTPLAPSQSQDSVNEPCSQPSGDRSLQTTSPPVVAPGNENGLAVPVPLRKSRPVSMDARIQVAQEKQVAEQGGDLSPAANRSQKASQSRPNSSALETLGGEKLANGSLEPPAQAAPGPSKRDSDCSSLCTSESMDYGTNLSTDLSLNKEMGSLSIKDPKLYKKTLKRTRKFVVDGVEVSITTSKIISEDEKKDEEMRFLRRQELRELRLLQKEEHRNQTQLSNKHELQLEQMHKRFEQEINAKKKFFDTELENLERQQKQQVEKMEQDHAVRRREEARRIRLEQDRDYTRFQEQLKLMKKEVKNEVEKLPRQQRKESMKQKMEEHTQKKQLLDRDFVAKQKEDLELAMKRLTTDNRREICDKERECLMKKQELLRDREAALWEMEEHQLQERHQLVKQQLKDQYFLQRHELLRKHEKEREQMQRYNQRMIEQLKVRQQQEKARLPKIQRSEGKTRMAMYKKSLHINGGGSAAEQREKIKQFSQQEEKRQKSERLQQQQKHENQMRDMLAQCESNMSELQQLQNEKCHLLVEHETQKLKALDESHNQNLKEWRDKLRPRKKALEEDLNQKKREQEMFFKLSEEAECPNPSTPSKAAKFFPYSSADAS
T2 sequence (Q9NQU5 whole entry): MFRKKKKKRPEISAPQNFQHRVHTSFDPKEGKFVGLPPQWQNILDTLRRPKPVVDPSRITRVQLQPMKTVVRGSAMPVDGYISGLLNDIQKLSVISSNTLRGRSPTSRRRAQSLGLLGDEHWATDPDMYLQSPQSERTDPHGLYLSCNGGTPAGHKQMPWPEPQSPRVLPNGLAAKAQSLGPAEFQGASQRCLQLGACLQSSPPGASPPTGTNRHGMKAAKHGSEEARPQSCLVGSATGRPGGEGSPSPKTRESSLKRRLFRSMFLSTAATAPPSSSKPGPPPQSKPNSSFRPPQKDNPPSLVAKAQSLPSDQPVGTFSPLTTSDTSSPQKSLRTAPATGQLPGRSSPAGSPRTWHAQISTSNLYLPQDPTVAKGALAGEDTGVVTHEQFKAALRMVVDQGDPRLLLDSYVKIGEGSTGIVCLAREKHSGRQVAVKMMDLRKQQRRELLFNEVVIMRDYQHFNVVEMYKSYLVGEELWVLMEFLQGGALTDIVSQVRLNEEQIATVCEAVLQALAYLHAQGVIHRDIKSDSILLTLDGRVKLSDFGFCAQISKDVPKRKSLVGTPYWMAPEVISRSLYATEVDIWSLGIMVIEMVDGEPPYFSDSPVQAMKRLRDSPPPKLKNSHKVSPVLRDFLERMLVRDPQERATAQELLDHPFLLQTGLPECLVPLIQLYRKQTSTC

Regarding `O=C(Nc1cnn(-c2csc(C(=O)NC3COC3)c2)c1)Nc1ccccc1Cl` [Compound 17, 4-(4-(3-(2-chlorophenyl)ureido)-1H-pyrazol-1-yl)-N-(oxetan-3-yl)thiophene-2-carboxamide], the remaining activity at 5 µM in experiment [1] stood at 110%; in experiment [2] it was 131%; in experiment [3] it was 98.3%; in experiment [4], 99.3%; in experiment [5], 89.5%; in [6], 87.9%. For the same compound, the remaining activity at 5 µM in experiment [7] amounted to 98.7%; in experiment [8], 89.7%; in [9], 102%; in experiment [10], 115%; in experiment [11] it was 106%.
As for `O=C(Nc1cnn(-c2csc(C(=O)NC3COC3)c2)c1)Nc1c(F)cccc1Cl` [Compound 25, 4-(4-(3-(2-chloro-6-fluorophenyl)ureido)-1H-pyrazol-1-yl)-N-(oxetan-3-yl)thiophene-2-carboxamide], the remaining activity at 5 µM in experiment [1] worked out at 85.9%; in experiment [2] it was 92.9%; in experiment [3], 71.4%; in experiment [4], 90.8%; in experiment [5] it was 104%; in [6], 89%. For the same compound, the remaining activity at 5 µM in experiment [7] amounted to 107%; in [8], 95%; in [9] it was 107%; in [10] it was 77.2%; in [11] it was 81.2%.
Turning to `Cc1sc(C(=O)NC2COC2)cc1-n1cc(NC(=O)Nc2c(F)cccc2Cl)cn1` [Compound 27, 4-(4-(3-(2-chloro-6-fluorophenyl)ureido)-1H-pyrazol-1-yl)-5-methyl-N-(oxetan-3-yl)thiophene-2-carboxamide], the remaining activity at 10 µM is 90.8% in [1] (10 uM); 99.9% in [2] (10 uM); 72.4% in experiment [3] (10 uM); 83.4% in experiment [4] (10 uM); 89.8% in [5] (10 uM); 96.4% in experiment [6] (10 uM). Further, the remaining activity at 10 µM in [7] (10 uM) is 72.2%; in experiment [8] (10 uM), 99.7%; in [9] (10 uM) it was 103%; in experiment [10] (10 uM) it was 90.4%; in [11] (10 uM) it was 104%.
